The values below come from ChEMBL document CHEMBL1130563, “The synthesis of (R)-1-(2-oxocyclopentyliden)-2-alkanols and the (S)-forms, and their bio-antimutagenic activity against UV-induced Escherichia coli WP2 B/r Trp” (1997).

Assay [1] concerns Escherichia coli. Briefly: Microbicidal activity against UV-induced Escherichia coli WP2 B/r Trp at a dose of 150 ug/mL; Not active. The format is functional, organism-based.
Assay [2] deals with Escherichia coli. Briefly: Bio-antimutagenic activity against UV-induced Escherichia coli WP2 B/r Trp; Not active. The format is functional, organism-based.
The subject of assay [3] is Escherichia coli. The experiment in a line: Compound was tested for half inhibition-dose of mutation frequency of UV-induced Escherichia coli WP2 B/r Trp. It is filed as functional.
Assay [4] concerns Escherichia coli. Briefly: Microbicidal activity against UV-induced Escherichia coli WP2 B/r Trp at a dose of 120 ug/mL; Not active. It is filed as functional, organism-based.
Assay [5] deals with Escherichia coli. The experiment in a line: Bio-antimutagenic activity against UV-induced Escherichia coli WP2 B/r Trp. It is filed as functional.

The structures appear in SMILES notation. Calls of active or inactive are those of the source. The rule behind the calls is not given here.

For the compound `CCCCCC[C@@H](O)/C=C1/CCCC1=O`, the outcome in the assay with Escherichia coli [1] was inactive. Besides, the AD50 result in the assay with Escherichia coli [2] was “inactive”.

In the assay with Escherichia coli [3], `CCCCCCCCC(O)/C=C1/CCCC1=O` (stereo not given) showed an AD50 of 6.7 µg/mL. Turning to `CCCCCCCC[C@H](O)/C=C1/CCCC1=O`, the outcome in the assay with Escherichia coli [4] was inactive. The AD50 with Escherichia coli [5] stood at 50 µg/mL. Turning to `CCCCCCCC[C@@H](O)/C=C1/CCCC1=O`, the outcome in the assay on Escherichia coli [1] was inactive. Also, in the assay on Escherichia coli [2], the AD50 entry was “inactive”. Compound `CCCCCCC(O)/C=C1/CCCC1=O` (stereo not given) came in with an AD50 with Escherichia coli [3] of 79 µg/mL. `CCCCCC[C@H](O)/C=C1/CCCC1=O`: the result in the assay with Escherichia coli [4] was inactive. For the same compound, the AD50 in the assay with Escherichia coli [5] is 50 µg/mL.
